9 compounds from ChEMBL document CHEMBL1201862, “PubChem BioAssay data set” (2004) can be followed below.

What all share (test): NCI tumour cell line growth inhibition, 48 h
For test [1], the system named is SF-295.
Test [2] concerns IGROV-1.
Test [3] concerns OVCAR-8.
Test [4] concerns SK-MEL-2.
Test [5] relates to HCT-15.
Test [6] relates to A498.
Test [7] relates to U-251.
For test [8], the system named is K562.
Test [9] concerns EKVX.
For test [10], the system named is HOP-62.
Test [11] has as its system A549.
Test [12] has as its system M14.
In test [13] the test system is TK-10.
In test [14] the test system is OVCAR-4.
For test [15], the system named is RPMI-8226.
Test [16] relates to UACC-62.
The test system of test [17] is SN12C.
The subject of test [18] is NCI-H460.
For test [19], the system named is SF-268.

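Cells were grown in 96-well plates and exposed to each compound for 48 hours at five concentrations; endpoints were interpolated linearly between bracketing concentrations, or set to the highest concentration if not reached. GI50 = concentration required for 50% inhibition of growth.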 Calls of active or inactive are those of the source. Rule as the data show it: active = GI50 up to about 1.1 µM and inactive = higher.

Turning to `O=NNc1cnc(O)nc1O`, the GI50 in test [1] was > 100 µM (inactive); in [2], 52.4 µM (inactive); in [3], > 100 µM (inactive); in test [4], > 100 µM (inactive); in test [5] it was above 100 µM; in [6], 92.7 µM (inactive). The GI50 in test [7], in test [8], in [9], in [10], in test [11] and in test [12] was > 100 µM (inactive) throughout. In addition, the GI50 is > 100 µM (inactive) in test [13]; > 100 µM (inactive) in [14]; > 100 µM (inactive) in test [15]; 71.3 µM (inactive) in [16]; > 100 µM (inactive) in test [17].

For `N#CCCN(CCC#N)c1ccc(C(=N/c2ccc(Cl)cc2)/N=N/c2ccccc2)cc1`, the GI50 in test [1] is 10.9 µM (inactive); in [2], 55.7 µM (inactive); in [3], > 100 µM (inactive); in [18], 55.1 µM (inactive); in test [5], 27.4 µM; in [6], > 100 µM (inactive). In addition, the GI50 in test [7] is > 100 µM (inactive); in test [8], > 100 µM (inactive); in test [9] it was 99.5 µM (inactive); in [10], > 100 µM (inactive); in test [11], 36.4 µM (inactive); in [12], > 100 µM (inactive). Besides, the GI50 is 88.5 µM (inactive) in [13]; 66.5 µM (inactive) in test [14]; > 100 µM (inactive) in test [15]; > 100 µM (inactive) in test [19]; 34.3 µM (inactive) in test [16]; > 100 µM (inactive) in test [17].

In the case of `Cc1ccc(S(=O)(=O)NN=C2C(C)(C)CC2(C)C)cc1`, the GI50 in test [1] was > 100 µM (inactive); in test [2] it was > 100 µM (inactive); in [3], > 100 µM (inactive); in [18], > 100 µM (inactive); in test [4], > 100 µM (inactive); in [5], above 100 µM. Besides, the GI50 is > 100 µM (inactive) in test [6]; > 100 µM (inactive) in [7]; 76.2 µM (inactive) in test [8]; > 100 µM (inactive) in test [9]; > 100 µM (inactive) in test [10]; > 100 µM (inactive) in [11]. The GI50 in test [12], in test [13], in test [14], in test [19], in [16] and in test [17] was > 100 µM (inactive) each time.

On to `Cc1c(Cl)cccc1NC(=O)C(=O)C(C(=O)c1ccccc1-c1ccccc1)C1OC(=O)c2ccccc21` (configuration not stated), for which the GI50 in test [1] was 19.1 µM (inactive); in test [2], 32.1 µM (inactive); in test [3], 25.5 µM (inactive); in test [18] it was 25.5 µM (inactive); in test [4], 16.1 µM (inactive); in test [7] it was 13.5 µM (inactive). Also, the GI50 in test [8] is 27.9 µM (inactive); in test [9] it was 26.8 µM (inactive); in test [10] it was 16.3 µM (inactive); in test [11] it was 22.4 µM (inactive); in [12], 17 µM (inactive); in [13] it was 28.6 µM (inactive). Also, the GI50 in test [15] was 13.8 µM (inactive); in test [19] it was 19.7 µM (inactive); in test [16], 17.9 µM (inactive).

As to `Cc1ccc(S(=O)(=O)CC2CCCn3c2c(C#N)c2ccccc23)cc1` (configuration not stated), the GI50 is > 100 µM (inactive) in test [1]; > 100 µM (inactive) in [2]; > 100 µM (inactive) in test [3]; > 100 µM (inactive) in test [4]; above 100 µM in test [5]; > 100 µM (inactive) in test [6]. The GI50 in test [7], in test [8], in test [9], in [10], in test [11] and in test [12] was > 100 µM (inactive) throughout. For the same compound, the GI50 in [13] was > 100 µM (inactive); in [14] it was > 100 µM (inactive); in test [15] it was > 100 µM (inactive); in [19], > 100 µM (inactive); in test [16], 57.4 µM (inactive); in test [17], > 100 µM (inactive).

Consider `C/C(=N\n1c(Cc2ccccc2)n[nH]c1=O)c1ccc([N+](=O)[O-])cc1`, for which the GI50 in test [1] was 91.8 µM (inactive); in [2] it was > 100 µM (inactive); in [3] it was 69.7 µM (inactive); in test [18], > 100 µM (inactive); in test [4], > 100 µM (inactive); in test [5] it was above 100 µM. For the same compound, the GI50 in test [7] was > 100 µM (inactive); in test [8] it was > 100 µM (inactive); in test [9], 74.5 µM (inactive); in test [10], 49.2 µM (inactive); in test [11] it was > 100 µM (inactive); in test [12], > 100 µM (inactive). Moreover, the GI50 was > 100 µM (inactive) in test [13]; > 100 µM (inactive) in test [14]; 50.4 µM (inactive) in test [15]; > 100 µM (inactive) in test [16]; > 100 µM (inactive) in test [17].

Turning to `C[C@@]12CCCc3coc(c31)C(=O)c1cc3c(cc12)C(=O)C=CC3=O` [XESTOQUINONE], the GI50 was 18.5 µM (inactive) in test [2]; 15.5 µM (inactive) in test [3]; 21.8 µM (inactive) in test [18]; 15.4 µM (inactive) in [4]; 17.7 µM in test [5]; 56.2 µM (inactive) in test [6]. For the same compound, the GI50 was 31.3 µM (inactive) in test [7]; 3.61 µM (inactive) in [8]; 18.8 µM (inactive) in test [9]; 23.7 µM (inactive) in test [11]; 16.1 µM (inactive) in test [12]; 21.2 µM (inactive) in test [13]. Further, the GI50 was 15.5 µM (inactive) in test [14], 5.98 µM (inactive) in test [15], 17.4 µM (inactive) in test [16] and 20.3 µM (inactive) in [17].

On to `Cc1nc(Nc2ccc(Cl)c(Cl)c2)sc1C(=O)/C=C/c1ccc2c(c1)OCO2`, for which the GI50 is 20 µM (inactive) in test [1]; 38.6 µM (inactive) in test [2]; 23.2 µM (inactive) in test [3]; 34.5 µM (inactive) in test [18]; 23.3 µM (inactive) in [6]; 22 µM (inactive) in test [7]. The GI50 in test [8] was 31.6 µM (inactive); in test [9], 34.5 µM (inactive); in [10] it was 17.9 µM (inactive); in [11] it was 22.3 µM (inactive); in [13], 24.5 µM (inactive); in test [14] it was 17.8 µM (inactive). For the same compound, the GI50 in [15] was 17.1 µM (inactive); in [19] it was 24.3 µM (inactive); in test [16] it was 37.6 µM (inactive).

In the case of `CCOC(=O)/C1=C(\C)N(c2ccc(C)cc2)C(=O)c2ccccc2C(=O)c2c(O)ccc(O)c21`, the GI50 in test [1] was 16.9 µM (inactive); in test [2], 18.9 µM (inactive); in [3], 18.9 µM (inactive); in test [18], 23.2 µM (inactive); in test [4], 28.8 µM (inactive); in [5] it was 14.4 µM. The GI50 in test [7] was 22.4 µM (inactive); in test [8], 20.6 µM (inactive); in [9], 24.8 µM (inactive); in [10] it was 20.7 µM (inactive); in test [11] it was 26.6 µM (inactive); in test [12] it was 19.1 µM (inactive). The GI50 in [13] is 26.2 µM (inactive); in test [14], 3.66 µM (inactive); in test [15], 11.7 µM (inactive); in [19] it was 27.7 µM (inactive); in test [16], 28 µM (inactive); in [17], 25.9 µM (inactive).
